Literature values as cited in patent US5935954A, “Compounds with improved multi-drug resistance activity” (Vertex Pharmaceuticals Incorporated, priority 1997, dated 1999).

Key:
[1] = system: multi-drug resistant ("MDR") cells; details: cited from earlier work
[2] = system: rat pheochromocytoma cell line; details: with NGF; cited from earlier work
sensory ganglia = details: cited from earlier work
[3] = system: FK506 binding protein or FKBP12; details: cited from earlier work
nerve cells = details: cited from earlier work

C=CC[C@@H]1/C=C(\C)C[C@H](C)C[C@H](OC)[C@H]2O[C@@](O)(C(=O)C(=O)N3CCCC[C@H]3C(=O)O[C@H](/C(C)=C/[C@@H]3CC[C@@H](O)[C@H](OC)C3)[C@H](C)[C@@H](O)CC1=O)[C@H](C)C[C@@H]2OC [FK506]
sensitization of MDR cells / activity against multi-drug resistance [1]: effective against multi-drug resistance
neurite outgrowth [2]: acts synergistically
neurotrophic effects (sensory ganglia): demonstrated similar neurotrophic effects
binding to FKBP12 [3]: have the ability to bind
stimulation of neurite outgrowth (nerve cells): effective in stimulating neurite outgrowth

CO[C@H]1C[C@@H]2CC[C@@H](C)[C@@](O)(O2)C(=O)C(=O)N2CCCC[C@H]2C(=O)O[C@H]([C@H](C)C[C@@H]2CC[C@@H](O)[C@H](OC)C2)CC(=O)[C@H](C)/C=C(\C)[C@@H](O)[C@@H](OC)C(=O)[C@H](C)C[C@H](C)/C=C/C=C/C=C/1C [rapamycin]
neurite outgrowth [2]: did not inhibit the effects of FK-506 on neurite outgrowth, but rather was neurotrophic itself, displaying an additive effect with FK-506
neurotrophic effects (sensory ganglia): those effects were blocked by rapamycin
binding to FKBP12 [3]: have the ability to bind
